For 28 compounds, IC50 results are on record in patent US9388189B2, “Pyrrolotriazinone derivatives as PI3K inhibitors” (ALMIRALL, S.A., priority 2012, dated 2016).

Sequence of PI3Kδ (PI3Kd) (O00329 whole entry, canonical isoform): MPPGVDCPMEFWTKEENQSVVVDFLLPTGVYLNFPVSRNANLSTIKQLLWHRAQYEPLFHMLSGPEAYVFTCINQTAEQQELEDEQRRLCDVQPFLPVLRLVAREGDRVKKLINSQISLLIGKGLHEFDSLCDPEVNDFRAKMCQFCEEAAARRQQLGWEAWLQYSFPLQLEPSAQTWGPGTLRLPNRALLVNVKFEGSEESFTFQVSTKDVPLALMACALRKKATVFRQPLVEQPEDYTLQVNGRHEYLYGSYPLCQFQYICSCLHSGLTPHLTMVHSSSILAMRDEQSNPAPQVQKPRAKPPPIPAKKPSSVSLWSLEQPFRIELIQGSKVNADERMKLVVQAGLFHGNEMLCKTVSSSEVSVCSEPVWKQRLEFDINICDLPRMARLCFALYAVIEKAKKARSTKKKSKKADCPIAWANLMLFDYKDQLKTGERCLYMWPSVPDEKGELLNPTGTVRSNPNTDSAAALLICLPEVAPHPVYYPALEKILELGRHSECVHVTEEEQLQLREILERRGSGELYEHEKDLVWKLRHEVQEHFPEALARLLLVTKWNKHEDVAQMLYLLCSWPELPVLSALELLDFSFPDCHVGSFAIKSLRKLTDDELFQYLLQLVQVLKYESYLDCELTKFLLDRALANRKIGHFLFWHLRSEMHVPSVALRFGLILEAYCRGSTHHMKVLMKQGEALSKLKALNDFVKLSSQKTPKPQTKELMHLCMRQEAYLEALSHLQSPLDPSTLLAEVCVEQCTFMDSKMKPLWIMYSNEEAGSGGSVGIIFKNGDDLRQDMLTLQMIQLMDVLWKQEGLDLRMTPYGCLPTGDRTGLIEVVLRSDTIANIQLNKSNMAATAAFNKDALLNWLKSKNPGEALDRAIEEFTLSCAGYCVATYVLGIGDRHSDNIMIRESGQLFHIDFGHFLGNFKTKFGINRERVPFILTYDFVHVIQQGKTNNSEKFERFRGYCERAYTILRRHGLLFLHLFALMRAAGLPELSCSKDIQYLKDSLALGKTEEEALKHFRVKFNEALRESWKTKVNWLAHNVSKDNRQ
Sequence of PI3Kδ (PI3Kd) (P27986 whole entry partner, canonical isoform): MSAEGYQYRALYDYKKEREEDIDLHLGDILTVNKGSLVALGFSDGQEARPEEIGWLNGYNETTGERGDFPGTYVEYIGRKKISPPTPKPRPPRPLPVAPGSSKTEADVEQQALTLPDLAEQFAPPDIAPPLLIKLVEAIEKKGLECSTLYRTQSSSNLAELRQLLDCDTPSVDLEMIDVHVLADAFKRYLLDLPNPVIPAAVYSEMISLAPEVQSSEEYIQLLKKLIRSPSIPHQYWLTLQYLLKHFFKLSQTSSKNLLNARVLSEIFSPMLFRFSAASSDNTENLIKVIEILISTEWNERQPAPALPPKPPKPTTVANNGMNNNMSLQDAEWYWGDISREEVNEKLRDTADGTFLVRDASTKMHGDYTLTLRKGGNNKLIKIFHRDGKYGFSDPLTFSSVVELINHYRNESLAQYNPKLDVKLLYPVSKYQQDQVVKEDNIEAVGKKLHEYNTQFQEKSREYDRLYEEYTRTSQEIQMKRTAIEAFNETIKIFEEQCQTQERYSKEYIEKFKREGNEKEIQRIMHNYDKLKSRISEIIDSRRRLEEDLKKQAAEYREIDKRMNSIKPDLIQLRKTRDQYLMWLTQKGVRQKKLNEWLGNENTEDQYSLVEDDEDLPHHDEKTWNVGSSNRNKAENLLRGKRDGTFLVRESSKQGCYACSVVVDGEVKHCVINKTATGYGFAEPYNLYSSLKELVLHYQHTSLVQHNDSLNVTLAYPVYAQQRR

This assay addresses PI3Kδ (PI3Kd) (Homo sapiens (Human), UniProt O00329). Put plainly: PI3K HTRF enzymatic inhibition assay (cell-free), delta isoform. The conditions noted are these: read-out: IC50 PI3Kd HTRF; recombinant PI3K delta, [ATP] 15 μM, [PIP2] 2 μM, 30 min preincubation. Background: TR-FRET usually uses a lanthanide donor and a delayed reading to cut background.
In the case of `C[C@H](Nc1ncnc(N)c1-c1nnn[nH]1)c1nn2cccc2c(=O)n1-c1ccccc1` [Example 1, (S)-2-(1-(6-Amino-5-(1H-tetrazol-5-yl)pyrimidin-4-ylamino)ethyl)-3-phenylpyrrolo[1,2-f][1,2,4]triazin-4(3H)-one], the IC50 was 15 nM.
Under `C[C@H](Nc1ncnc(N)c1-c1nccs1)c1nn2cccc2c(=O)n1-c1ccccc1` [Example 2, (S)-2-(1-((6-Amino-5-(thiazol-2-yl)pyrimidin-4-yl)amino)ethyl)-3-phenylpyrrolo[2,1-f][1,2,4]triazin-4(3H)-one] stands 22 nM; under `C[C@H](Nc1ncnc(N)c1-c1ccc(N)nc1)c1nn2cccc2c(=O)n1-c1ccccc1` [Example 3, (S)-2-(1-((6-Amino-5-(6-aminopyridin-3-yl)pyrimidin-4-yl)amino)ethyl)-3-phenylpyrrolo[2,1-f][1,2,4]triazin-4(3H)-one], 40 nM; under `C[C@H](Nc1ncnc(N)c1-c1cnn(CCO)c1)c1nn2cccc2c(=O)n1-c1ccccc1` [Example 5, (S)-2-(1-((6-Amino-5-(1-(2-hydroxyethyl)-1H-pyrazol-4-yl)pyrimidin-4-yl)amino)ethyl)-3-phenylpyrrolo[2,1-f][1,2,4]triazin-4(3H)-one], 17 nM.
Next, `C[C@H](Nc1ncnc(N)c1-c1cc(O)cc(F)c1)c1nn2cccc2c(=O)n1-c1ccccc1` [Example 7, (S)-2-(1-((6-Amino-5-(3-fluoro-5-hydroxyphenyl)pyrimidin-4-yl)amino)ethyl)-3-phenylpyrrolo[2,1-f][1,2,4]triazin-4(3H)-one]: 11 nM.
Consider `Cc1ccn2nc([C@H](C)Nc3ncnc(N)c3-c3ccc4cc[nH]c4c3)n(-c3ccccc3)c(=O)c12` [Example 15, (S)-2-(1-((6-Amino-5-(1H-indol-6-yl)pyrimidin-4-yl)amino)ethyl)-5-methyl-3-phenylpyrrolo[2,1-f][1,2,4]triazin-4(3H)-one], for which the IC50 is 3 nM.
Consider `Cc1ccn2nc([C@H](C)Nc3ncnc(N)c3-c3cnc(N)nc3)n(-c3ccccc3)c(=O)c12` [Example 16, (S)-2-(1-((2′,6-Diamino-[5,5′-bipyrimidin]-4-yl)amino)ethyl)-5-methyl-3-phenylpyrrolo[2,1-f][1,2,4]triazin-4(3H)-one], for which the IC50 was determined as 5 nM.
Consider `N#Cc1c(N)ncnc1N[C@@H](CCOCc1ccccc1)c1nn2ccc(C#N)c2c(=O)n1-c1cc(F)cc(F)c1` [Example 17, (S)-2-(1-((6-Amino-5-cyanopyrimidin-4-yl)amino)-3-(benzyloxy)propyl)-3-(3,5-difluorophenyl)-4-oxo-3,4-dihydropyrrolo[2,1-f][1,2,4]triazine-5-carbonitrile], for which the IC50 worked out at 6 nM.
Under `N#Cc1c(N)ncnc1N[C@@H](CCSCc1ccccc1)c1nn2cccc2c(=O)n1-c1ccccc1` [Example 19, (S)-4-Amino-6-((3-(benzylthio)-1-(4-oxo-3-phenyl-3,4-dihydropyrrolo[2,1-f][1,2,4]triazin-2-yl)propyl)amino)pyrimidine-5-carbonitrile] stands 95 nM.
On to `N#Cc1c(N)ncnc1N[C@@H](CCOc1ccccc1)c1nn2cccc2c(=O)n1-c1ccccc1` [Example 20, (S)-4-Amino-6-((1-(4-oxo-3-phenyl-3,4-dihydropyrrolo[2,1-f][1,2,4]triazin-2-yl)-3-phenoxypropyl)amino)pyrimidine-5-carbonitrile], for which the IC50 was 1 nM.
Under `COc1ncc(-c2c(N)ncnc2N[C@@H](C)c2nn3ccc(C)c3c(=O)n2-c2ccccc2)cc1NS(=O)(=O)c1ccc(F)cc1` [Example 22, (S)—N-(5-(4-Amino-6-((1-(5-methyl-4-oxo-3-phenyl-3,4-dihydropyrrolo[2,1-f][1,2,4]triazin-2-yl)ethyl)amino)pyrimidin-5-yl)-2-methoxypyridin-3-yl)-4-fluorobenzenesulfonamide] stands 12 nM; under `N#Cc1ccn2nc([C@H](CCOCc3ccccc3)Nc3ncnc(N)c3-c3cc(O)cc(F)c3)n(-c3cc(F)cc(F)c3)c(=O)c12` [Example 24, (S)-2-(1-((6-Amino-5-(3-fluoro-5-hydroxyphenyl)pyrimidin-4-yl)amino)-3-(benzyloxy)propyl)-3-(3,5-difluorophenyl)-4-oxo-3,4-dihydropyrrolo[2,1-f][1,2,4]triazine-5-carbonitrile], 97 nM; under `Cc1ccn2nc([C@H](C)Nc3ncnc4[nH]cc(-c5cc(O)cc(F)c5)c34)n(-c3ccccc3)c(=O)c12` [Example 27, (S)-2-(1-((5-(3-Fluoro-5-hydroxyphenyl)-7H-pyrrolo[2,3-d]pyrimidin-4-yl)amino)ethyl)-5-methyl-3-phenylpyrrolo[2,1-f][1,2,4]triazin-4(3H)-one], 1 nM.
Next, `Cc1ccn2nc([C@H](C)Nc3ncnc(N)c3-c3cc(O)cc(C(F)(F)F)c3)n(-c3ccccc3)c(=O)c12` [Example 28, (S)-2-(1-((6-Amino-5-(3-hydroxy-5-(trifluoromethyl)phenyl)pyrimidin-4-yl)amino)ethyl)-5-methyl-3-phenylpyrrolo[2,1-f][1,2,4]triazin-4(3H)-one]: 5 nM.
Under `C[C@H](Nc1ncnc(N)c1-c1cc(O)cc(F)c1)c1nn2ccc(Sc3ccccc3)c2c(=O)n1-c1ccccc1` [Example 34, (S)-2-(1-((6-Amino-5-(3-fluoro-5-hydroxyphenyl)pyrimidin-4-yl)amino)ethyl)-3-phenyl-5-(phenylthio)pyrrolo[2,1-f][1,2,4]triazin-4(3H)-one] stands 12 nM.
Turning to `Cc1ccn2nc([C@H](C)Nc3ncncc3-c3cc(O)cc(F)c3)n(-c3ccccc3)c(=O)c12` [Example 35, (S)-2-(1-((5-(3-Fluoro-5-hydroxyphenyl)pyrimidin-4-yl)amino)ethyl)-5-methyl-3-phenylpyrrolo[2,1-f][1,2,4]triazin-4(3H)-one], the IC50 came out at 4 nM.
Under `Cc1ccn2nc([C@H](C)Nc3ncnc4[nH]cc(C(=O)OCc5ccccc5)c34)n(-c3ccccc3)c(=O)c12` [Example 37, (S)-Benzyl 4-((1-(5-methyl-4-oxo-3-phenyl-3,4-dihydropyrrolo[2,1-f][1,2,4]triazin-2-yl)ethyl)amino)-7H-pyrrolo[2,3-d]pyrimidine-5-carboxylate] stands 5 nM; under `COc1cccc(Cc2ccn3nc([C@H](C)Nc4ncnc(N)c4C#N)n(-c4ccccc4)c(=O)c23)c1` [Example 40, (S)-4-Amino-6-((1-(5-(3-methoxybenzyl)-4-oxo-3-phenyl-3,4-dihydropyrrolo[2,1-f][1,2,4]triazin-2-yl)ethyl)amino)pyrimidine-5-carbonitrile], 30 nM.
Under `Cc1ccn2nc([C@H](C)Nc3ncnc4[nH]cc(Cc5cccc(O)c5)c34)n(-c3ccccc3)c(=O)c12` [Example 43, (S)-2-(1-((5-(3-Hydroxybenzyl)-7H-pyrrolo[2,3-d]pyrimidin-4-yl)amino)ethyl)-5-methyl-3-phenylpyrrolo[2,1-f][1,2,4]triazin-4(3H)-one] stands 3 nM; under `COc1ncc(-c2c[nH]c3ncnc(N[C@@H](C)c4nn5ccc(C)c5c(=O)n4-c4ccccc4)c23)cc1NS(C)(=O)=O` [Example 45, (S)—N-(2-Methoxy-5-(4-((1-(5-methyl-4-oxo-3-phenyl-3,4-dihydropyrrolo[2,1-f][1,2,4]triazin-2-yl)ethyl)amino)-7H-pyrrolo[2,3-d]pyrimidin-5-yl)pyridin-3-yl)methanesulfonamide], 2 nM; under `Cc1ccn2nc([C@H](C)Nc3ncnc4[nH]cc(-c5cccc6[nH]ncc56)c34)n(-c3ccccc3)c(=O)c12` [Example 52], 1 nM.
On to `Cc1ccn2nc([C@H](C)Nc3ncnc4sccc34)n(-c3ccccc3)c(=O)c12` [Example 59, (S)-5-Methyl-3-phenyl-2-(1-(thieno[2,3-d]pyrimidin-4-ylamino)ethyl)pyrrolo[2,1-f][1,2,4]triazin-4(3H)-one], for which the IC50 came to 10 nM.
For the compound `Cc1ccn2nc([C@H](C)Nc3ncnc(N)c3Cc3cccc(O)c3)n(-c3ccccc3)c(=O)c12` [Example 64, (S)-2-(1-((6-Amino-5-(3-hydroxybenzyl)pyrimidin-4-yl)amino)ethyl)-5-methyl-3-phenylpyrrolo[2,1-f][1,2,4]triazin-4(3H)-one], the IC50 was 16 nM.
Next, `C[C@H](Nc1ncnc(N)c1C#N)c1nn2ccc(Cc3cccc(O)c3)c2c(=O)n1-c1ccccc1` [Example 74, (S)-4-Amino-6-((1-(5-(3-hydroxybenzyl)-4-oxo-3-phenyl-3,4-dihydropyrrolo[2,1-f][1,2,4]triazin-2-yl)ethyl)amino)pyrimidine-5-carbonitrile]: 36 nM; `Cc1ccn2nc([C@H](C)Nc3ncnc4[nH]cc(-c5cc(NS(C)(=O)=O)cc(N(C)C)c5)c34)n(-c3ccccc3)c(=O)c12` [Example 76, (S)—N-(3-(Dimethylamino)-5-(4-((1-(5-methyl-4-oxo-3-phenyl-3,4-dihydropyrrolo[2,1-f][1,2,4]triazin-2-yl)ethyl)amino)-7H-pyrrolo[2,3-d]pyrimidin-5-yl)phenyl)methanesulfonamide]: 0.8 nM; `Cc1ccn2nc([C@H](C)Nc3ncnc4[nH]cc(Cc5cc(O)cc(F)c5)c34)n(-c3ccccc3)c(=O)c12` [Example 78, (S)-2-(1-((5-(3-Fluoro-5-hydroxybenzyl)-7H-pyrrolo[2,3-d]pyrimidin-4-yl)amino)ethyl)-5-methyl-3-phenylpyrrolo[2,1-f][1,2,4]triazin-4(3H)-one]: 0.4 nM.
Under `Cc1ccn2nc([C@H](C)Nc3ncnc4[nH]cc(C#Cc5ccccc5)c34)n(-c3ccccc3)c(=O)c12` [Example 80, (S)-5-Methyl-3-phenyl-2-(1-((5-(phenylethynyl)-7H-pyrrolo[2,3-d]pyrimidin-4-yl)amino)ethyl)pyrrolo[2,1-f][1,2,4]triazin-4(3H)-one] stands 0.3 nM; under `Cc1ccn2nc([C@H](C)Nc3ncnc4[nH]cc(-c5cccc(S(=O)(=O)N6CCOCC6)c5)c34)n(-c3ccccc3)c(=O)c12` [Example 85, (S)-5-Methyl-2-(1-((5-(3-(morpholinosulfonyl)phenyl)-7H-pyrrolo[2,3-d]pyrimidin-4-yl)amino)ethyl)-3-phenylpyrrolo[2,1-f][1,2,4]triazin-4(3H)-one], 0.3 nM.

As a reminder, the IC50 is the point on the concentration scale where inhibition reaches its midpoint.
